Source: ChEMBL document CHEMBL1201862, “PubChem BioAssay data set” (2004)
Calls of active or inactive are those of the source.

Legend:
Assay type in all cases: functional
[1] = target: ALK tyrosine kinase receptor (Homo sapiens, UniProt Q9UM73);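 further: ALK tested as one member of a kinase panel screen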
[2] = target: Serine/threonine-protein kinase TAO1 (Homo sapiens, UniProt Q7L7X3)
[3] = target: Receptor-type tyrosine-protein kinase FLT3 (Homo sapiens, UniProt P36888);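 further: FLT3 was tested as one member of a kinome-wide kinase panel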
Receptor-type tyrosine-protein kinase FLT3, sequence (P36888 whole entry): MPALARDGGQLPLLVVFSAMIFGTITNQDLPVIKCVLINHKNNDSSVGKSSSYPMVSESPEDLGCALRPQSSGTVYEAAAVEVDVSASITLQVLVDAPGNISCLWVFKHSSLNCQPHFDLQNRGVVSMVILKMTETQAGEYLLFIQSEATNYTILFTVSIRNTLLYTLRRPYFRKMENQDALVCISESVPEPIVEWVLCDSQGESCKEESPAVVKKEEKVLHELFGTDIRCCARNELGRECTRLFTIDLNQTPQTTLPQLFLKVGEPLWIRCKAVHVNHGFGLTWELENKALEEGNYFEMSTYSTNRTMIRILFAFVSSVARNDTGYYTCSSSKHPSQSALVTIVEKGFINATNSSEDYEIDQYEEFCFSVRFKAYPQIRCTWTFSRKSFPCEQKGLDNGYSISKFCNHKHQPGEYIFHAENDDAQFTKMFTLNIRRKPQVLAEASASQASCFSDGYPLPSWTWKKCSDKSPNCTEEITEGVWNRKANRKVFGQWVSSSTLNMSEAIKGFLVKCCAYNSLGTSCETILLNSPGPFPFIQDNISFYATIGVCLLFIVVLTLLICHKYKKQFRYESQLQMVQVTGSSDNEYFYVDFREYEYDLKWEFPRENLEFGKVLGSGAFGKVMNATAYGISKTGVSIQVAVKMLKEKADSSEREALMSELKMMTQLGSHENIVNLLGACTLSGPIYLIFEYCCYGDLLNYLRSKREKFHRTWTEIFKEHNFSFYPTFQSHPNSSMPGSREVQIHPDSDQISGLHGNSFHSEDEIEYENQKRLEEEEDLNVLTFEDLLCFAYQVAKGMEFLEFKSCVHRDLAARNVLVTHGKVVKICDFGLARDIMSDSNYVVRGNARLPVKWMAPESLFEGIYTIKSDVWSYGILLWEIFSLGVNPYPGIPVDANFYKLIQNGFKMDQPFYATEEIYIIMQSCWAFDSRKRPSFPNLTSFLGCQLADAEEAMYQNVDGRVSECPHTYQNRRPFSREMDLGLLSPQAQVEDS

[4] = target: T1, Serine/threonine-protein kinase D3 (Homo sapiens, UniProt O94806);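 further: determined within a kinase panel screen, with PRKCN as the panel member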
T1 sequence (O94806 whole entry): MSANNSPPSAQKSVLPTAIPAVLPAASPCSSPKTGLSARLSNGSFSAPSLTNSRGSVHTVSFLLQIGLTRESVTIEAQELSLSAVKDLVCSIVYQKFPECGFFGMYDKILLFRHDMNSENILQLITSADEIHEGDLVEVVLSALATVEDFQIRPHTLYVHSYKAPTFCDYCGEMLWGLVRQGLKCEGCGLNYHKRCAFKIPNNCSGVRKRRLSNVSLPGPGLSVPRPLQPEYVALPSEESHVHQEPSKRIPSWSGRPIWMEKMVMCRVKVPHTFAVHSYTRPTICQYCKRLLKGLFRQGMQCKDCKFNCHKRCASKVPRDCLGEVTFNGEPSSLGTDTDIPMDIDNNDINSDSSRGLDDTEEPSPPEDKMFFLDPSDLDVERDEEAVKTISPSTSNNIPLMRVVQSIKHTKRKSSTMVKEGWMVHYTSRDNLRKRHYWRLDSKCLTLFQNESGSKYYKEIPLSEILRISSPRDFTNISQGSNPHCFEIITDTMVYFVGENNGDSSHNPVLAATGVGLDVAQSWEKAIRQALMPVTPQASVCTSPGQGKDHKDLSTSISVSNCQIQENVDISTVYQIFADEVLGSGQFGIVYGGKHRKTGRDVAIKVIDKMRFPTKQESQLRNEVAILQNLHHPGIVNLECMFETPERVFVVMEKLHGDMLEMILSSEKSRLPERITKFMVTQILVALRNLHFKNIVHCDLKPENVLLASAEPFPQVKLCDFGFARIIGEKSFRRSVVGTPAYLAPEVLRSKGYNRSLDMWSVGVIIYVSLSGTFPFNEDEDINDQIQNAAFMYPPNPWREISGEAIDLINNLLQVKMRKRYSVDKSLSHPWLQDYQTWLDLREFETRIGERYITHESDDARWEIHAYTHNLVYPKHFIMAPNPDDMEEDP

[5] = target: Serine/threonine-protein kinase pim-1 (Homo sapiens, UniProt P11309)
Aurora kinase A = Aurora kinase A (Homo sapiens, UniProt O14965);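 further: value from the Navigating the Kinome kinase panel profiling, panel entry STK6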
Aurora kinase A, sequence (O14965 whole entry): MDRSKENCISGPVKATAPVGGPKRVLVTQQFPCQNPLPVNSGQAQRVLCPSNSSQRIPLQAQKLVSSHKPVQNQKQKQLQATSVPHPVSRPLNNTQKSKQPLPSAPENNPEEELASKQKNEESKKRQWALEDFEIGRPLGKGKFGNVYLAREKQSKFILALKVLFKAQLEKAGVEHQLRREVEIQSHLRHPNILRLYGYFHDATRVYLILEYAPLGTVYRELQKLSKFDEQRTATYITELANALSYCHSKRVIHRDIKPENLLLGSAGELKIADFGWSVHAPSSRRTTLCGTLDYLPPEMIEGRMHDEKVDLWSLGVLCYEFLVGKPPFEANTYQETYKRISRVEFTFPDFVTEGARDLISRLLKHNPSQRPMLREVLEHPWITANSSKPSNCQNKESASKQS

[6] = target: Glycogen synthase kinase-3 beta (Homo sapiens, UniProt P49841);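 further: value comes from a broad kinome profiling panel, with GSK3B as the panel member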
[7] = target: Insulin-like growth factor 1 receptor (Homo sapiens, UniProt P08069); experiment: Navigating the Kinome. Panel member name: IGF1R
Insulin-like growth factor 1 receptor, sequence (P08069 31-736 limits assumed): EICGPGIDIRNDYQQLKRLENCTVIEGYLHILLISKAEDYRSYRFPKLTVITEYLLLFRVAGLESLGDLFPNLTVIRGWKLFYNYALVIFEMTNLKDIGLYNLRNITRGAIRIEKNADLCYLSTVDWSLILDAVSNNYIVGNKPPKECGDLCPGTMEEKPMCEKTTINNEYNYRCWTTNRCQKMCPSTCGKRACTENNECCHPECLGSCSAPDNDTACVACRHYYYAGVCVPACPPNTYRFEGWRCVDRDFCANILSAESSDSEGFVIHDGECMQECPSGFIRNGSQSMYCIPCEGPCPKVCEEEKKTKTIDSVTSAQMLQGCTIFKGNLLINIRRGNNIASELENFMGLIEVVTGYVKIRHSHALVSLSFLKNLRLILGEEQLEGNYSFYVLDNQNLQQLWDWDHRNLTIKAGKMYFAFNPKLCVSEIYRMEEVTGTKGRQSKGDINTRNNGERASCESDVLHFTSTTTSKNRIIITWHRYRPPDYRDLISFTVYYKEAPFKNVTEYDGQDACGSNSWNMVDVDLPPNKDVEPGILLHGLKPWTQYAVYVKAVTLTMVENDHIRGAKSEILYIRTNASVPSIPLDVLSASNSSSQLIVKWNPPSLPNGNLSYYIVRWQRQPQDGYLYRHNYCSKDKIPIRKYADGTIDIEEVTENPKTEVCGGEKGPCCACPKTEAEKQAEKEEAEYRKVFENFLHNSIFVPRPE
Insulin-like growth factor 1 receptor, sequence (P08069 741-1367 limits assumed): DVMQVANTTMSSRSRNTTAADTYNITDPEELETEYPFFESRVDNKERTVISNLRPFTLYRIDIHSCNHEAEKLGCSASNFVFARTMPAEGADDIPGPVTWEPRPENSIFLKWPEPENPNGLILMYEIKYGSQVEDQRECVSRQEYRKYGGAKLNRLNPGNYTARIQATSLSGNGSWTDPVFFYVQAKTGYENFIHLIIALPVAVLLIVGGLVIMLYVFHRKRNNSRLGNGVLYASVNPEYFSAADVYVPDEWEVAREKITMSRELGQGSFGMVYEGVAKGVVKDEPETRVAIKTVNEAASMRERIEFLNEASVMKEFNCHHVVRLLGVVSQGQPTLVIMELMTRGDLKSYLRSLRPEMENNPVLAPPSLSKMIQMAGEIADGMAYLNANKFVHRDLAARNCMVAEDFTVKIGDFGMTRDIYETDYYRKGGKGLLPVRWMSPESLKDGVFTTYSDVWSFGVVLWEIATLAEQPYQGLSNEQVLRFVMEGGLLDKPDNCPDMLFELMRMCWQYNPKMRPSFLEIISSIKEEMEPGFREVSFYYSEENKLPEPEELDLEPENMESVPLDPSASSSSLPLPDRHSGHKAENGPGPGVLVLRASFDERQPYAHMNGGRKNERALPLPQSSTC

[8] = target: Serine/threonine-protein kinase PAK 4 (Homo sapiens, UniProt O96013);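 further: value obtained within a kinome profiling panel in which PAK4 was one of the panel members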
Serine/threonine-protein kinase PAK 4, sequence (O96013 whole entry): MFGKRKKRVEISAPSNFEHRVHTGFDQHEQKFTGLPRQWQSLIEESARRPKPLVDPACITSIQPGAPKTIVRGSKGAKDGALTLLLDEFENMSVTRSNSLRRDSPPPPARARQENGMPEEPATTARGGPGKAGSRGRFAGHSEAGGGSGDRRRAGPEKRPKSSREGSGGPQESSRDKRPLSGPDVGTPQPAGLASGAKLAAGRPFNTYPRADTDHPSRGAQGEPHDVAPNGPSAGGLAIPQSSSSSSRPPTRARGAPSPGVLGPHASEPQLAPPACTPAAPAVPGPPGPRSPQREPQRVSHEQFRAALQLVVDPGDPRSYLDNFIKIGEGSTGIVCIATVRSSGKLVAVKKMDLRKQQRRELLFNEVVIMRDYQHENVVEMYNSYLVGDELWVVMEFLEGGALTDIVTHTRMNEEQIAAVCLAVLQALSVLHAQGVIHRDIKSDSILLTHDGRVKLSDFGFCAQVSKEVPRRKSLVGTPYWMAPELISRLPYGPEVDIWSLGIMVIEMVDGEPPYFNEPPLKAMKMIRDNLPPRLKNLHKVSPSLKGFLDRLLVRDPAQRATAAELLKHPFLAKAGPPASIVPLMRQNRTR

[9] = target: Cyclin-dependent kinase 5 (Homo sapiens, UniProt Q00535);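 further: CDK5 measured as one member of a kinase profiling panel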
[10] = target: Vascular endothelial growth factor receptor 2 (Homo sapiens, UniProt P35968)
[11] = target: Tyrosine-protein kinase Fyn (Homo sapiens, UniProt P06241)
[12] = target: High affinity nerve growth factor receptor (Homo sapiens, UniProt P04629);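 further: NTRK1 tested as one member of a kinome-wide profiling panel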
High affinity nerve growth factor receptor, sequence (P04629 whole entry): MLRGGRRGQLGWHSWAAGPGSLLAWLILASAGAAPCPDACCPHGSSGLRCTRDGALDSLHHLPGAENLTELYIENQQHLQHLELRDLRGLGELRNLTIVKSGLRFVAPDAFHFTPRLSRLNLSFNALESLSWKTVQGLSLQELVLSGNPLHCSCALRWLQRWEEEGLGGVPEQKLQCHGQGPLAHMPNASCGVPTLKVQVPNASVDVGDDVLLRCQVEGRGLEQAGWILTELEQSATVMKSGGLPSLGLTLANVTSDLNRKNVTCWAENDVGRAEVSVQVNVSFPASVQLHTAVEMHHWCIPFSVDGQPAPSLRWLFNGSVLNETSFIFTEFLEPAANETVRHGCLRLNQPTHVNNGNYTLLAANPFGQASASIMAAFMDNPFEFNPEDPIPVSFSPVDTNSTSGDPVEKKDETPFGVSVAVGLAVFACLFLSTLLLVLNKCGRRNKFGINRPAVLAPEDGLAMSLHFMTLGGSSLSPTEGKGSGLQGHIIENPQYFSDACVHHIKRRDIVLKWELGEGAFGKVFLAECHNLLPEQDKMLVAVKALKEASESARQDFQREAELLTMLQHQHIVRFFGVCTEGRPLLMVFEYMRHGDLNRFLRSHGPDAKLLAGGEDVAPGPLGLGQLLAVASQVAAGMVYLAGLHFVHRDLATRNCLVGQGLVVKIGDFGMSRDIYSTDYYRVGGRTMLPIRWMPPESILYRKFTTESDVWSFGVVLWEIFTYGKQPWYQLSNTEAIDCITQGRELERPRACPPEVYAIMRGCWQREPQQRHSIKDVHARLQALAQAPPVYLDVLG

[13] = target: Tyrosine-protein kinase BTK (Homo sapiens, UniProt Q06187)
[14] = target: Tyrosine-protein kinase ABL1 (Homo sapiens, UniProt P00519)
[15] = target: Glycogen synthase kinase-3 alpha (Homo sapiens, UniProt P49840);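 further: GSK3A result taken from a broad kinome-wide kinase panel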
[16] = target: Cyclin-dependent kinase 7 (Homo sapiens, UniProt P50613);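 further: value comes from a kinome-wide kinase profiling panel in which CDK7 is one member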
Cyclin-dependent kinase 7, sequence (P50613 whole entry): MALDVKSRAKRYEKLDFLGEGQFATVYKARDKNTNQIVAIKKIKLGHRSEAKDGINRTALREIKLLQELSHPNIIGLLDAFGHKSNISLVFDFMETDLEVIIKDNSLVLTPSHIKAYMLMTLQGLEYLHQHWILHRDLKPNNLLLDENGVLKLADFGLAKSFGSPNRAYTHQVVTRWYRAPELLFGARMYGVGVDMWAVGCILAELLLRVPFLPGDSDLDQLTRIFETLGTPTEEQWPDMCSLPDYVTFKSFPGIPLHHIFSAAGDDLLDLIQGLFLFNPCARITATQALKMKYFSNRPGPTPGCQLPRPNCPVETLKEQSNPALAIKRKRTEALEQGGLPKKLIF

[17] = target: Vascular endothelial growth factor receptor 1 (Homo sapiens, UniProt P17948);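 further: measured within a kinome-wide profiling panel, FLT1 as the panel member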
[18] = target: Tyrosine-protein kinase JAK3 (Homo sapiens, UniProt P52333)
[19] = target: T2, Tyrosine-protein kinase receptor TYRO3 (Homo sapiens, UniProt Q06418);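 further: TYRO3 value obtained as one member of a kinome-wide profiling panel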
T2 sequence (Q06418 whole entry): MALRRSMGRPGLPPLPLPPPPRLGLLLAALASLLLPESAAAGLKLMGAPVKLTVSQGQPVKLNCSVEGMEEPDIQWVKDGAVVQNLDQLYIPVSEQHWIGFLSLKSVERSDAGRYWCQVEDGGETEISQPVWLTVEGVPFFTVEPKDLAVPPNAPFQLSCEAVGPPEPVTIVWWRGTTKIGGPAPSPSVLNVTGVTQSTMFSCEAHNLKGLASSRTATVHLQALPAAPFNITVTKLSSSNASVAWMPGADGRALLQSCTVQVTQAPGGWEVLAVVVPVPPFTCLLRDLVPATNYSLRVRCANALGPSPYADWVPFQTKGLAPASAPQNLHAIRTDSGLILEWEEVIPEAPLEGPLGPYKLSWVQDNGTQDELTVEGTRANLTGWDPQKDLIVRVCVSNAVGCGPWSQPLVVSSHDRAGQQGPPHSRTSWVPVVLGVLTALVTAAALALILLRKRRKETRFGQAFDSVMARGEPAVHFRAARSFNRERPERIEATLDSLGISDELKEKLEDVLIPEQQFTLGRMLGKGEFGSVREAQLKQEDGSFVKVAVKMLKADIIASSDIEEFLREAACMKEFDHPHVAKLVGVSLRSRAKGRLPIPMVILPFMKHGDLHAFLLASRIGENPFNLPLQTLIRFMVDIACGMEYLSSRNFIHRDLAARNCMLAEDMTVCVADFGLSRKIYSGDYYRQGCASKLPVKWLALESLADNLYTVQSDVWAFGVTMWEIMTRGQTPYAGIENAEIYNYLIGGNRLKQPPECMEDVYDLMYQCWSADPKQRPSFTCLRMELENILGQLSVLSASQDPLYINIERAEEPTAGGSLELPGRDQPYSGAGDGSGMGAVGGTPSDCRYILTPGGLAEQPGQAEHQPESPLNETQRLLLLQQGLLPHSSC

[20] = target: Cyclin-dependent kinase 8 (Homo sapiens, UniProt P49336); experiment: Navigating the Kinome. Panel member name: CDK8
Cyclin-dependent kinase 8, sequence (P49336 whole entry): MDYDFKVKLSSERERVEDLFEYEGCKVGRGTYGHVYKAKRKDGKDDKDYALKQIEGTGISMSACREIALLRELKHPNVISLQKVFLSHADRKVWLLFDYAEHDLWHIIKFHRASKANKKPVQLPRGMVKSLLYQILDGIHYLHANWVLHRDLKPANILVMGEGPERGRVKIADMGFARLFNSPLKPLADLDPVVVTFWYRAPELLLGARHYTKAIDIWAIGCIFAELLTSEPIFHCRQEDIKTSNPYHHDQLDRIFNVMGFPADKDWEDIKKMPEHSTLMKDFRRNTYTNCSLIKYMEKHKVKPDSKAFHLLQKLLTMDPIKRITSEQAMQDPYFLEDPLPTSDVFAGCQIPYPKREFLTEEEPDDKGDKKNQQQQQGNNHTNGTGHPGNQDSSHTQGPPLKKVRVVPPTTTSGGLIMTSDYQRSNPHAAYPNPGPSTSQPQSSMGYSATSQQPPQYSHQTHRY

[21] = target: Tyrosine-protein kinase JAK2 (Homo sapiens, UniProt O60674);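 further: JAK2 tested as one member of a kinase panel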

Ki [1]	Ki [2]	Ki [3]	Ki [4]	Ki [5]	Ki (Aurora kinase A)	Ki [6]	Ki [7]	Ki [8]	Ki [9]	Ki [10]	Ki [11]	Ki [12]	Ki [13]	Ki [14]	Ki [15]	Ki [16]	Ki [17]	Ki [18]	Ki [19]	Compound	further results
> 6.31 µM (inactive)	> 6.31 µM (inactive)	> 3.16 µM (inactive)	> 3.98 µM (inactive)	> 6.31 µM (inactive)	> 1.58 µM (inactive)	2 µM (active)	> 2.51 µM (inactive)	> 5.01 µM (inactive)	> 3.16 µM (inactive)	> 2.51 µM (inactive)	> 6.31 µM (inactive)	> 3.16 µM (inactive)	> 6.31 µM (inactive)	> 2.51 µM (inactive)	3.16 µM (active)	> 3.98 µM (inactive)	> 3.98 µM (inactive)	> 5.01 µM (inactive)	> 3.16 µM (inactive)	[2H]C([2H])([2H])Oc1cccc(C(C)NC(=O)c2sc(-c3ccncc3)nc2C)c1 (centres undefined)	Ki [20]: > 3.98 µM (inactive); Ki [21]: > 2.51 µM (inactive)
0.794 µM (active)	0.631 µM (active)	0.1 µM (active)	0.00398 µM (active)	0.00631 µM (active)	1 µM (active)	0.0316 µM (active)	> 2 µM (inactive)	0.0794 µM (active)	0.0126 µM (active)	> 7.94 µM (inactive)	> 0.794 µM (inactive)	> 2.51 µM (inactive)	> 1.26 µM (inactive)	> 0.631 µM (inactive)	0.1 µM (active)	0.02 µM (active)	> 0.398 µM (inactive)	1.26 µM (active)	> 2 µM (inactive)	Cc1n[nH]c2ccc(-c3cncc(OCC(N)Cc4ccc(Cl)c(Cl)c4)c3)cc12 (centres undefined)	Ki [20]: 0.0126 µM (active); Ki [21]: > 1.58 µM (inactive)
